Laboratory results published in patent publication US5051132A, “Lyophilized preparation of 6-(3-dimethylaminopropionyl)forskolin” (priority 1989, dated 1991).

Assay: Stability and solubility of 6-(3-dimethylaminopropionyl)forskolin in aqueous solution
Type: physicochemical

Structure (SMILES): C=CC1(C)CC(=O)C2(O)C(C)(O1)C(OC(C)=O)C(OC(=O)CCN(C)C)C1C(C)(C)CCC(O)C12C (centres unmarked) [6-(3-dimethylaminopropionyl)forskolin]
- stability in the state of aqueous solution (aqueous solution): unstable in the state of aqueous solution
- stability and solubility in the pH range of about 3 to about 6 (pH about 3 to about 6): keeps stable and exhibits a good solubility
